# Assay results: patent US7202239B2, “Cyclohexylphenyl carboxamides tocolytic oxytocin receptor antagonists” (Wyeth, priority 2001, dated 2007)
# Target: human V2 vasopressin receptor subtype (Homo sapiens, UniProt P30518)
# Test: Vasopressin binding in CHO cell membranes expressing human vasopressin V2 subtype receptors
# Conditions: 100 nM, [3H]arginine vasopressin
# Text: Vasopressin Binding in Chinese Hamster Ovary Cell Membranes Expressing Human Vasopressin V2 Subtype Receptors
# Chinese Hamster Ovary (CHO) cells stably transfected with the human V2 subtype receptors were obtained from M. Thibonnier, Case Western Reserve University School of Medicine, Cleveland, Ohio.
# A. Passaging and Amplification of Cells:
# CHO cells transfected with the human vasopressin V2 subtype receptors obtained from M. Thibonnier (pZeoSV vector) are allowed to grow to confluency (approx. >90%) in T-150 flasks under sterile conditions, in a cell culture medium of F-12 Nutrient Mixture (HAM) with L-glutamine (Gibco Cat. # 11765-054) containing 15 mM HEPES (Gibco Cat. # 15630-080), 1% antibiotic/antimycotic (add 5 mL 100×, Gibco Cat. # 15240-062 per 500 mL F-12), 250 μg/mL Zeocin (add 1.25 mL of 100 mg/mL Invitrogen R-250-01 per 500 mL F-12) and 10% Fetal Bovine Serum (Qualified, heat inactivated, Gibco Cat. # 16140-063). The medium is removed by aspiration and the cells washed with 10 mL of Hank's Balanced Salt solution (Gibco Cat. # 14175-095). The salt solution is removed by aspiration and the cells trypsinized with 5 mL of trypsin-EDTA (0.05% trypsin, 0.53 mM EDTA-4Na, Gibco Cat. # 25300-070) for 1 min. The trypsin is removed by aspiration and the cells dislodged by tapping. Cell Culture medium (e.g. 30 mL for 1:30 split) is immediately added and mixed well to inactivate trypsin. 1 mL of detached cells is added to new culture flasks containing fresh Cell Culture medium (e.g. into 25 mL per T-150 flask), and mixed gently. The cells are incubated at 37° C. in 5% CO2. The medium is changed at 3 to 4 day interval (or as appropriate). The cells grow to confluency (approx. >75%–95%) within 7–8 days. All steps are done under sterile conditions. B. Membrane Preparation: The cells are washed twice gently with Hank's Balanced Salt solution (e.g. use 10 mL per T-150 flask). The excess solution is removed and the cells bathed for 15–30 min. in an enzyme-free Cell Dissociation Buffer (e.g. use 8 mL Hank's Based, Gibco Cat. # 13150-016 per T-150 flask) until cells are loosened. The contents are transferred to centrifuge tubes (50 mL) kept in an ice bath. All subsequent steps are done at 4° C. The tubes are centrifuged at 300× g for 15 min (1380 rpm on SORVAL, Model RT6000D, using the rotor for 50 mL tubes). The supernatant is discarded and the cells suspended in homogeneizing buffer(10 mM Tris-HCl containing 0.25 M sucrose and 1 mM EDTA, pH 7.4) ensuring that the volume of the buffer is about ten times the volume of the cell pellet. The cells are pooled into a centrifuge tube (50 mL) and homogenized with a Polytron at setting 6 for 10 sec. The homogenate is transferred into a Potter-Elvjehm homogeneizer and homogenized with 3 strokes. The homogenate is centrifuged at 1500×g for 60 min at 4° C. (3100 rpm using SORVAL, model RT6000D, using the rotor for 50 mL tubes). The pellet is discarded. The supernatant is centrifuged at 100,000×g for 60 min. at 4° C. (Beckman L8-80M ultracentrifuge; spin at 37,500 rpm with rotor type 70 Ti for 50 mL tubes; 38,000 rpm with type 80Ti for 15 mL tubes; or 35,800 rpm with rotor type 45Ti). The supernantant is discarded and the pellet suspended in 3 to 4 mL of Tris buffer (50 mM TRIS-HCl, pH 7.4). The protein content is estimated by the Bradford or Lowry method. The volume of the membrane suspension is adjusted with the membrane buffer (50 mM Tris-HCl containing 0.1% BSA and 0.1 mM PMSF) to give 3.0 mg/mL (or as appropriate) of protein. The membranes are aliquoted and stored at −70° C. C. Radioligand Binding Assay: In wells of a 96-well format microtiter plate, is added 90, 110 or 130 μL (to make up a final volume of 200 μL) of assay buffer containing 50 mM of Tris-HCl (pH 7.4), […], 1 mg % aprotinin, 1 mg % leupeptin, 2 mg % 1,10-phenanthroline, 10 mg % trypsin inhibitor, and 0.1 mM PMSF. The inhibitors are added on the day of the experiment. […]
# Sequence of human V2 vasopressin receptor subtype (P30518 whole entry): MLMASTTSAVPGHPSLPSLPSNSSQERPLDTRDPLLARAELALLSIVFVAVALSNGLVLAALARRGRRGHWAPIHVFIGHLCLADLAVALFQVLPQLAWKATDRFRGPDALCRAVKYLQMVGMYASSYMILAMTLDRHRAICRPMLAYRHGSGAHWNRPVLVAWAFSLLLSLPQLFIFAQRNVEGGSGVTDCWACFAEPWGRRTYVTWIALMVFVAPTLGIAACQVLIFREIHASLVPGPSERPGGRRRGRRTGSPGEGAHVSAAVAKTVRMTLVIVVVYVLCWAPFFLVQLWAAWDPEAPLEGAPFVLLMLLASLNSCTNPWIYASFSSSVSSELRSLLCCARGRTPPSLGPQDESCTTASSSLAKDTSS
SMILES,V2 % inhibition at 100 nM,inhibition at 0.1 µM
"O=C(NCCc1ccccn1)c1ccc2n1Cc1ccccc1N(C(=O)c1ccc(C3CCCCC3)cc1)C2 [Example 49, 10-(4-Cyclohexyl-benzoyl)-N-[2-(2-pyridinyl)ethyl]-10,11-dihydro-5H-pyrrolo[2,1-c][1,4]benzodiazepine-3-carboxamide]",–,10%
"O=C(NCc1ccccn1)c1ccc2n1Cc1ccccc1N(C(=O)c1ccc(C3CCCCC3)cc1)C2 [Example 50, 10-(4-Cyclohexyl-benzoyl)-N-(2-pyridinylmethyl)-10,11-dihydro-5H-pyrrolo[2,1-c][1,4]benzodiazepine-3-carboxamide]",–,15%
"CN(CCc1ccccn1)C(=O)c1ccc2n1Cc1ccccc1N(C(=O)c1ccc(C3CCCCC3)cc1)C2 [Example 52, 10-(4-Cyclohexyl-benzoyl)-N-methyl-N-[2-(2-pyridinyl)-ethyl]-10,11-dihydro-5H-pyrrolo[2,1-c][1,4]benzodiazepine-3-carboxamide]",–,8%
"O=C(NCc1ccncc1)c1ccc2n1Cc1ccccc1N(C(=O)c1ccc(C3CCCCC3)cc1)C2 [Example 53, 10-(4-Cyclohexyl-benzoyl)-N-(4-pyridinylmethyl)-10,11-dihydro-5H-pyrrolo[2,1-c][1,4]benzodiazepine-3-carboxamide]",–,2%
"O=C(c1ccc2n1Cc1ccccc1N(C(=O)c1ccc(C3CCCCC3)cc1)C2)N1CCN(c2ccncc2)CC1 [Example 54, [10-(4-Cyclohexyl-benzoyl)-10,11-dihydro-5H-pyrrolo[2,1-c][1,4]benzpdiazepin-3-yl][4-(4-pyridinyl)-1-piperazinyl]-methanone]",6%,–
"CN(CCc1ccncc1)C(=O)c1ccc2n1Cc1ccccc1N(C(=O)c1ccc(C3CCCCC3)cc1)C2 [Example 55, 10-(4-Cyclohexyl-benzoyl)-N-methyl-N-[2(4-pyridinyl)ethyl]-10,11-dihydro-5H-pyrrolo[2,1-c][1,4]benzodiazepine-3-carboxamide]",–,6%

# Next, values leading:
V2 % inhibition at 100 nM,inhibition at 0.1 µM,SMILES
14%,–,"O=C(c1ccc2n1Cc1ccccc1N(C(=O)c1ccc(C3CCCCC3)cc1)C2)N1CCN(CCO)CC1 [Example 48, [10-(4-Cyclohexyl-benzoyl)-10,11-dihydro-5H-pyrrolo[2,1-c][1,4]benzodiazepin-3-y][4-(2-hydroxyethyl)-1-piperazinyl]methanone]"
–,7%,"O=C(NCc1cccnc1)c1ccc2n1Cc1ccccc1N(C(=O)c1ccc(C3CCCCC3)cc1)C2 [Example 51, 10-(4-Cyclohexyl-benzoyl)-N-(3-pyridinylmethyl)-10,11-dihydro-5H-pyrrolo [2,1-c][1,4]benzodiazepine-3-carboxamide]"
–,-2%,"O=C(c1ccc(C2CCCCC2)cc1)N1Cc2ccc(C(=O)n3ccnc3)n2Cc2ccccc21 [Example 56, 1H-Imidazol-1-yl-[10-(4-cyclohexyl-benzoyl)-10,11-dihydro-5H-pyrrolo[2,1-c][1,4]benzodiazepin-3-yl]-methanone]"
–,4%,"CN(Cc1cccnc1)C(=O)c1ccc2n1Cc1ccccc1N(C(=O)c1ccc(C3CCCCC3)cc1)C2 [Example 57, 10-(4-Cyclohexyl-benzoyl)-N-methyl-N-(3-pyridinylmethyl)-10,11-dihydro-5H-pyrrolo[2,1-c][1,4]benzodiazepine-3-carboxamide]"
